The values that follow come from US4051141A, “Thieno[3,2-c]pyridine derivatives” (Centre d'Etudes pour l'Industrie pharmaceutique, priority 1973, dated 1977).

Series [1] is described as follows: in vivo. The settings on record: mouse, iv, read-out: LD50/24 hrs/kg body weight.
In series [2] the test system is blood plate aggregation. The series is described as follows: Inhibitor action on blood plate aggregation induced by adenosine diphosphate (turbidimetric assay of serum from treated animals). Conditions: rats, 100 mg/kg. The series is classed as in vivo. An excerpt:
2. Inhibitor Action on Blood Plate Aggregation
The normally cloudy blood plate rich serum of rats is made clear by addition of adenosine diphosphate which induces aggregation of the blood plates. […] Thus, the inhibitor action on blood plate aggregation of the test derivatives may be evaluated by means of a simple spectrophotometric turbidimetric assay.

The subject of series [3] is carrageenin-induced edema. Nature of the series: Localised carrageenin-induced edema method (anti-inflammatory action). The class given is in vivo. Conditions: rats, oral 100 mg/kg (1 h before, with, 1 h and 2.5 h after). The protocol:
a. Localised Carrageenin-induced Edema Method A 1% carrageenin solution (1 ml) is injected in the metatarsal flexor muscles of the right hind paw of rats at time O. The animals of the treated lots are additionally administered orally 100 mg/kg of the test derivative, respectively one hour prior to and then simultaneously with the phlogogenic agent, and then one hour and 2.5 hrs thereafter. The percent anti-inflammatory activity with respect to the reference lot, as a function of time, is determined by measurements effected with a Roch micrometer at times O, one hour, two hours, three hours and five hours after carrageenin administration.
For orientation: Carrageenan injected into the paw causes an acute inflammation.

Series [4] deals with ovalbumin-induced edema. Nature of the series: Ovalbumin-induced systemic edema method (anti-inflammatory action). The series is classed as in vivo. The settings on record: rats, oral 100 mg (1 h before and with ovalbumin). On the procedure:
b. Ovalbumin-induced Systemic Edema Method Rats are administered a simultaneous intraperitoneal injection of 1 ml ovalbumin and 0.5 ml of a 1.[…]. aqueous Evans Blue solution. The animals of the treated lot are additionally administered orally 100 mg of the test derivative, one hour prior to ovalbumin administration and simultaneously with said ovalbumin administration. The intensity of the phenomenon thus induced is scored according to a scale from 1 to 5, according to the progress of the inflammatory syndrome. Thus are determined the mean intensity of the edema and the percent decrease of the edema reaction with respect to the control lot. Said percentage, for derivative No. 5, for example, is 62% after two hours and 70% after three hours.

The nature of series [5]: Acute toxicity, LD50/24 hrs, intravenous, derivatives of formula (IV). The settings on record: mouse, in vivo, mice, read-out: LD50/24 hrs/kg body weight. The source says:
It concerned the acute toxicity, the subacute toxicity, the chronic toxicity, the tolerance and the teratology of said derivatives.

Turning to `COc1cc(CN2CCc3sccc3C2)cc(OC)c1OC` [derivative 3, 5-(3,4,5-trimethoxy-benzyl)-4,5,6,7-tetrahydrothieno[3,2-c]pyridine], the LD50 at 24 h in series [1] is 60 mg/kg.
For the compound `Cl.Clc1ccc(CN2CCc3sccc3C2)cc1` [derivative 5, 5-parachlorobenzyl-4,5,6,7-tetrahydro-thieno-[3,2-c]pyridine hydrochloride], the “protection against blood plate aggregation” value in series [2] is “greater than 95%”. Also, the “percent anti-inflammatory activity with respect to the reference lot” value in series [3] (after five hours) is reported as 55%; in series [3] (after one hour), 45%; in series [3] (after three hours), 52%; in series [3] (after two hours) it was 51%. In addition, the “percent decrease of the edema reaction with respect to the control lot” value in series [4] (after three hours) is 70%; in series [4] (after two hours) it was 62%.
`O=C(C[n+]1ccc2sccc2c1)c1ccccc1.[Br-]` [derivative No. 24, 5-phenacyl-thieno[3,2-c]pyridinium bromide]: the LD50 at 24 h in series [5] was 19 mg/kg.
The same measure, in the same setting: the same measure for `COc1ccccc1C(=O)C[n+]1ccc2sccc2c1` [derivative No. 25, 5-(O-Methoxy-Phenacyl)-Thieno[3,2-c]Pyridinium bromide]: 18 mg/kg.
On the same count and under the same terms, the same measure for `O=C(C[n+]1ccc2sc(Cl)cc2c1)c1ccccc1.[Br-]` [derivative No. 26, 2-chloro-5-phenacyl-thieno[3,2-c]pyridinium bromide]: 38 mg/kg; for `O=C(C[n+]1ccc2sccc2c1)c1ccc(Cl)cc1.[Br-]` [derivative No. 27, N-parachloro-phenacyl-thieno[3,2-c]pyridinium bromide]: 17.5 mg/kg; for `O=C(C[n+]1ccc2sccc2c1)c1ccc(F)cc1.[Cl-]` [derivative No. 29, 5-para-fluoro-phenacyl-thieno[3,2-c]pyridinium chloride]: 16 mg/kg.
Same read-out and setting: the same measure for `O=C(C[n+]1ccc2sccc2c1)c1ccc(O)cc1.[Cl-]` [derivative No. 30, N-(para-hydroxy-phenacyl)-thieno[3,2-c]pyridinium chloride]: 25 mg/kg; for `COc1ccc(C(=O)C[n+]2ccc3sccc3c2)cc1.[Br-]` [derivative No. 31, N-(para-methoxy-phenacyl)-thieno[3,2-c]pyridinium bromide]: 32 mg/kg; for `COc1cccc(C(=O)C[n+]2ccc3sccc3c2)c1.[Br-]` [derivative No. 32, N-(meta-methoxy-phenacyl)-thieno[3,2-c]pyridinium bromide]: 16 mg/kg.
